Reference: article PMC8696980, “Isolation, semi-synthesis, docking-based prediction, and bioassay-based activity of Dolichandrone spathacea iridoids: new catalpol derivatives as glucosidase inhibitors” (RSC Advances, 2021)
Like-named read-outs stand apart in the source and are kept apart here.

Biological target: T1, α-glucosidase (Saccharomyces cerevisiae, UniProt P53341)
T1 construct: purchased Sigma-Aldrich G0660
Assay: biochemical
Assay type: biochemical
Settings: 37 °C, 30 minutes, pH 6.8
Protocol: All analytically graded reagents were purchased from either Sigma-Aldrich or Merck & Co. and used without further purification. Solvents for column chromatography were distilled before use. Melting points (in °C) were determined on a Thermo Mel-temp 3.0 (USA). Infrared (IR) spectra were recorded on an IMPACT 410 Nicolet Spectrometer. ESI-MS spectra were obtained from an 1100 Agilent LC/MS ion Trap. 1D (^1H, ^13C and DEPT) and 2D (HSQC, HMBC, COSY, NOESY) NMR spectra were recorded on a Bruker Avance 500 MHz using tetramethylsilane (TMS) as the internal standard for ^1H and solvent signal for ^13C NMR. Thin-layer chromatography (TLC) was carried out on a pre-coated silica gel 60 F254 (Merck & Co.), visualised under ultraviolet (UV) radiation at λmax 254 nm, and stained by a solution of 1% (w/w) vanillin in sulfuric acid. Column chromatography (CC) was performed on silica gel 300–400 mesh (Merck & Co.). Enzyme α-glucosidase was purchased from Sigma-Aldrich under the name code G0660, detected by a Biotek Epoch 2 microplate readers (USA).
Each assay was performed on 96 well-plates (200 μL per well). The test samples were dissolved in DMSO 10% and further diluted to the concentrations: 1024, 256, 64, 16, 4, 1 μg.mL^−1. Each concentration of the test sample (10 μL) was incubated at 37 °C with phosphate buffer 100 mM (pH 6.8, 40 μL), α-glucosidase 0.4 U mL^−1 (25 μL), p-nitrophenyl α-D-glucopyranoside 2.5 mM (25 μL). After 30 minutes, the reaction was terminated by adding 100 μL of 0.1 M Na2CO3 solution. The enzyme activities were determined by measuring the absorbance at λmax 410 nm. […] Percentage of inhibition was calculated as followed:[31] [drawing 1]

[1] = IC50 (α-glucosidase inhibitory activity)

T1 sequence (P53341 whole entry): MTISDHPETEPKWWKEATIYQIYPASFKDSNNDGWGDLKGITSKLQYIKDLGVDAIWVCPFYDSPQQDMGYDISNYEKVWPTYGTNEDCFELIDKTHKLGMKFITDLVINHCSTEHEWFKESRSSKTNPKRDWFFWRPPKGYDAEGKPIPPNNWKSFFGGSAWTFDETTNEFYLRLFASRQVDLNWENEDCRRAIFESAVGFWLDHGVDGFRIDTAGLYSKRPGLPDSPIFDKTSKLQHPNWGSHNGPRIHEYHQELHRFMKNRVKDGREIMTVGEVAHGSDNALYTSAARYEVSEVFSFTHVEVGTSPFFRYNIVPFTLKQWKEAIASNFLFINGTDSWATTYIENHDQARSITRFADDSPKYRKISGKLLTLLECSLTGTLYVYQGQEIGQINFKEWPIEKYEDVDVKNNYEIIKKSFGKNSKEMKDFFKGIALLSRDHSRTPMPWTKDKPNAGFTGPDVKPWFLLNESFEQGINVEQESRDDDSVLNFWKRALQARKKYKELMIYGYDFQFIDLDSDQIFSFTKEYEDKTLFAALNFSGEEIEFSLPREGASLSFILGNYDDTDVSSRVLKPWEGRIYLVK

Compound	IC50 (α-glucosidase inhibitory activity)	IC50 [1] [µM]	IC50 (read-out: IC50 (α-glucosidase inhibitory activity)) [µM]
COc1ccc(CCC(=O)OC2C3C=COC(OC4OC(COC(C)=O)C(OC(C)=O)C(OC(C)=O)C4OC(C)=O)C3C3(COC(C)=O)OC23)cc1OC (stereo not shown) [Compound 5, 6-O-(3,4-dimethoxyphenylpropanoyl)catalpolpentaacetate]	inactive	> 390	–
O=C(/C=C/c1ccc(O)cc1)O[C@H]1[C@@H]2C=CO[C@@H](O[C@@H]3O[C@H](CO)[C@@H](O)[C@H](O)[C@H]3O)[C@@H]2[C@@]2(CO)O[C@@H]12 [Compound 14, specioside]	–	–	8.65
COc1ccc(CCC(=O)OC2C3C=COC(OC4OC(CO)C(O)C(O)C4O)C3C3(CO)OC23)cc1OC (stereo not shown) [Compound 4, 6-O-(3,4-dimethoxyphenylpropanoyl)catalpol]	inactive	> 390	–
COc1ccc(/C=C/C(=O)O[C@H]2[C@@H]3C=CO[C@@H](O[C@@H]4O[C@H](CO)[C@@H](O)[C@H](O)[C@H]4O)[C@@H]3[C@@]3(CO)O[C@@H]23)cc1O [Compound 13, minecoside]	–	20.8	–
CC(=CCO)CCC=C(C)C(=O)OC1C2C=COC(OC3OC(CO)C(O)C(O)C3O)C2C2(CO)OC12 (stereo not shown) [Compound 10, nemoroside]	–	0.05	–
COc1ccc(C=CC(=O)OC2C3C=COC(OC4OC(COC(C)=O)C(OC(C)=O)C(OC(C)=O)C4OC(C)=O)C3C3(COC(C)=O)OC23)cc1OC (stereo not shown) [Compound 8, 6-O-[(E)-3,4-dimethoxycinnamoyl]catalpolpentaacetate]	inactive	> 390	–
COc1ccc(C=CC(=O)OC2C3C=COC(OC4OC(CO)C(O)C(O)C4O)C3C3(CO)OC23)cc1 (stereo not shown) [Compound 1, 6-O-[(E)-4-methoxycinnamoyl]catalpol]	–	24.9	–
COc1ccc(C=CC(=O)OC2C3C=COC(OC4OC(COC(C)=O)C(OC(C)=O)C(OC(C)=O)C4OC(C)=O)C3C3(COC(C)=O)OC23)cc1 (stereo not shown) [Compound 7, minecoside pentaacetate]	–	168	–
COc1ccc(C=CC(=O)OC2C3C=COC(OC4OC(CO)C(O)C(O)C4O)C3C3(CO)OC23)cc1OC (stereo not shown) [Compound 2, 6-O-[(E)-3,4-dimethoxycinnamoyl]catalpol]	–	7.24	–
COc1ccc(C=CC(=O)OC2C3C=COC(OC4OC(COC(C)=O)C(OC(C)=O)C(OC(C)=O)C4OC(C)=O)C3C3(COC(C)=O)OC23)cc1OC(C)=O (stereo not shown) [Compound 11, 6-O-[(E)-4-methoxycinnamoyl]catalpolhexaacetate]	inactive	> 390	–
COc1ccc(CCC(=O)OC2C3C=COC(OC4OC(CO)C(O)C(O)C4O)C3C3(CO)OC23)cc1 (stereo not shown) [Compound 3, 6-O-(4-methoxyphenylpropanoyl)catalpol]	inactive	> 390	–
CC(=O)OCC1OC(OC2OC=CC3C(OC(=O)C=Cc4ccc(OC(C)=O)cc4)C4OC4(COC(C)=O)C23)C(OC(C)=O)C(OC(C)=O)C1OC(C)=O (stereo not shown) [Compound 12, specioside hexaacetate]	–	71.6	–
COc1ccc(C=CC(=O)OC2C3C=COC(OC4OC5COC(C)(C)OC5C(O)C4O)C3C3(CO)OC23)cc1 (stereo not shown) [Compound 9, 6-O-[(E)-4-methoxycinnamoyl]catalpol-4′,6′-acetonide]	–	> 390	–
COc1ccc(C=CC(=O)OC2C3C=COC(OC4OC(COC(c5ccccc5)(c5ccccc5)c5ccccc5)C(O)C(O)C4O)C3C3(COC(c4ccccc4)(c4ccccc4)c4ccccc4)OC23)cc1OC (stereo not shown) [Compound 6, 6-O-[(E)-3,4-dimethoxy]catalpol-10,6′-O-ditriphenylmethyl]	–	225	–
